Legend:
corn (ZEAMD) [1] = assay: Test I preemergence mixtures of compound 2 with crop safeners; type: in vivo, Zea mays cv. ‘Pioneer 33G26’; conditions: alone
Text: (§1) Seeds of test plants consisting of winter wheat (TRZAW, Triticum aestivum), corn (ZEAMD, Zea mays cv. ‘Pioneer 33G26’), wild oat (AVEFA, Avena fatua), and Italian ryegrass (LOLMU, Lolium multiflorum) were planted into a blend of loam soil and sand and treated preemergence with a directed soil spray using test chemicals formulated in a non-phytotoxic solvent mixture that included a surfactant. Seeds of small-seeded species were planted about 1 cm deep; larger seeds were planted about 2.5 cm deep. […] Balanced fertilizer was applied through the watering system. Treatments consisted of Compound 2 and the above mentioned safeners alone and in combination using a spray volume of 457 L/ha. Each treatment was replicated four times. Treated plants and controls were maintained in a greenhouse for 14 to 21 days, after which time all species were compared to controls and visually evaluated. […] A dash (-) response means no test result. Colby's Equation was used to determine the herbicidal effects expected from the mixtures. Colby's Equation (Colby, S. […] Pa+b=Pa+Pb−(PaPb/100) wherein • Pa+b is the percentage effect of the mixture expected from additive contribution of the individual components, • Pa is the observed percentage effect of the first active ingredient at the same use rate as in the mixture, and • Pb is the observed percentage effect of the second active ingredient at the same use rate as in the mixture.

winter wheat (TRZAW) [2] = assay: as above; type: in vivo, Triticum aestivum; conditions: alone
Text: as §1

Italian ryegrass (LOLMU) = assay: Test H preemergence mixtures of compound 2 with crop safeners; type: in vivo, Lolium multiflorum; set-up: key to LOLMU Obsd. (observed effect): observed % effect, visually evaluated vs controls
Text: (§2) Seeds of test plants consisting of winter wheat (TRZAW, Triticum aestivum), corn (ZEAMD, Zea mays cv. ‘Pioneer 33G26’), giant foxtail (SETFA, Setaria faberi), and Italian ryegrass (LOLMU, Lolium multiflorum) were planted into a blend of loam soil and sand and treated preemergence with a directed soil spray using test chemicals formulated in a non-phytotoxic solvent mixture that included a surfactant. Seeds of small-seeded species were planted about 1 cm deep; larger seeds were planted about 2.5 cm deep. […] Balanced fertilizer was applied through the watering system. Treatments consisted of Compound 2 and the above mentioned safeners alone and in combination using a spray volume of 457 L/ha. Each treatment was replicated four times. Treated plants and controls were maintained in a greenhouse for 14 to 21 days, after which time all species were compared to controls and visually evaluated. […] A dash (-) response means no test result. Colby's Equation was used to determine the herbicidal effects expected from the mixtures. Colby's Equation (Colby, S. […] wherein • Pa+b is the percentage effect of the mixture expected from additive contribution of the individual components, • Pa is the observed percentage effect of the first active ingredient at the same use rate as in the mixture, and • Pb is the observed percentage effect of the second active ingredient at the same use rate as in the mixture.

winter wheat (TRZAW) [3] = assay: as above; type: in vivo, Triticum aestivum; set-up: key to TRZAW Obsd. (observed effect): observed % effect, visually evaluated vs controls
Text: as §2

wild oat (AVEFA) = assay: Test I preemergence mixtures of compound 2 with crop safeners; type: in vivo, Avena fatua; conditions: alone
Text: as §1

corn (ZEAMD) [4] = assay: Test J preemergence mixtures of Compound 2 with crop safeners; type: in vivo, Zea mays cv. ‘Pioneer 33G26’; set-up: key to ZEAMD Obsd. (observed effect): observed % herbicidal effect
Text: as §2, with “aestivum) and” for “aestivum),”, “33G26’)” for “33G26’), giant foxtail (SETFA, Setaria faberi), and Italian ryegrass (LOLMU, Lolium multiflorum)”, “surfactant.” for “surfactant. Seeds of small-seeded species were planted about 1 cm deep; larger seeds were planted about 2.5 cm deep.”, “times.” for “times. Treated plants and controls were maintained in a greenhouse for 14 to 21 days, after which time all species were compared to controls and visually evaluated.”, “and” for “and •”

corn (ZEAMD) [5] = assay: Test H preemergence mixtures of compound 2 with crop safeners; type: in vivo, Zea mays cv. ‘Pioneer 33G26’; set-up: key to ZEAMD Obsd. (observed effect): observed % effect, visually evaluated vs controls
Text: as §2

giant foxtail (SETFA) = assay: as above; type: in vivo, Setaria faberi; set-up: key to SETFA Obsd. (observed effect): observed % effect, visually evaluated vs controls
Text: as §2

[6] = Cmpd 2 alone 125 g a.i./ha, scale 0 to 100, mean of four replicates

## Cc1cc[n+]([O-])c(S(=O)(=O)Cc2c(C(F)(F)F)nn(C)c2OC(F)F)c1 [Compound 2]
Corn (ZEAMD) [1]; 125 g a.i./ha
  ZEAMD Obsd. (observed effect): 69
Corn (ZEAMD) [1]; 250 g a.i./ha
  ZEAMD Obsd. (observed effect): 93
Winter wheat (TRZAW) [2]; 125 g a.i./ha
  TRZAW Obsd. (observed effect): 93
Winter wheat (TRZAW) [2]; 250 g a.i./ha
  TRZAW Obsd. (observed effect): 100
Italian ryegrass (LOLMU); [6]
  Plant response rating LOLMU Obsd.: 53
Italian ryegrass (LOLMU); Test H, alone, 125 g a.i./ha
  LOLMU Obsd. (observed effect): 53
Winter wheat (TRZAW) [3]; [6]
  Plant response rating TRZAW Obsd.: 63
Winter wheat (TRZAW) [3]; Test H, alone, 125 g a.i./ha
  TRZAW Obsd. (observed effect): 63
Wild oat (AVEFA); 125 g a.i./ha
  AVEFA Obsd. (observed effect): 93
Wild oat (AVEFA); 250 g a.i./ha
  AVEFA Obsd. (observed effect): 96
Corn (ZEAMD) [4]; Test J, alone, 125 g a.i./ha
  ZEAMD Obsd. (observed effect): 35
Corn (ZEAMD) [4]; single active ingredient alone at 125 g a.i./ha
  Observed effect (Obsd.), ZEAMD: 35%
Corn (ZEAMD) [5]; [6]
  Plant response rating ZEAMD Obsd.: 15
Corn (ZEAMD) [5]; Test H, alone, 125 g a.i./ha
  ZEAMD Obsd. (observed effect): 15
Giant foxtail (SETFA); [6]
  Plant response rating SETFA Obsd.: 100
Giant foxtail (SETFA); Test H, alone, 125 g a.i./ha
  SETFA Obsd. (observed effect): 100

Source: patent US20100298141A1, “SUBSTITUTED PYRIDINE N-OXIDE HERBICIDES” (E. I. DU PONT DE NEMOURS AND COMPANY, priority 2007, published 2010)
